Assay results taken from patent US12241084B2, “Methods for efficient generation of GABAergic interneurons from pluripotent stem cells” (The McLean Hospital Corporation, priority 2013, dated 2025).
“Also recorded” adds a separate entry of the source.

Columns and labels:
[1] = tested on: H9 cells; assay: MGE derivation from differentiating hPSCs (Nkx2.1 immunocytochemistry, cell counting, FACS); assay type: cell-based, human; conditions: for MGE specification: treatment starting at day 0, flow cytometry; for Nkx2.2+/total cells: n=4
Method: Human PSC cells (H9 ESCs (WA09, WiCell, Madison, WI, passage 45-55), H7 ESC (WA07, WiCell, passage 41-51) and iPSC2497 (a kind gift from Dr. Fred Gage, [14], passage 30-40) were maintained on Matrigel (BD, San Hose, CA) in mTeSR media (Invitrogen, Calsbad, CA) with 10 ng/ml bFGF (Peprotech, Rocky Hill, NJ), and passaged using Dispase (Stem Cell Technologies, Vancouver, BC, Canada). For differentiation, PSCs were trypsinized and grown as floating aggregates in low adherent flasks in KSR media (20% knockout serum replacement, DMEM, 2 mM L-glutamine and 10 μM β-mercaptoethanol (all from Invitrogen)). Rock inhibitor (Y-27632, 10 μM, Tocris, Bristol, United Kingdom) was added on the first day of differentiation. After two weeks of floating culture, cells were transferred to polyornithine (PLO; […]; Sigma, St. Louis, MO) and fibronectin (FN; […]; Sigma, St. Louis, MO) coated surfaces. For neural induction, cells were treated with LDN193189 (100 nM, Stemgent, Cambridge, MA) from d0 to d14 and with SB431542 (10 μM, Tocris) from d0 to d7 [25]. For MGE induction, cells were treated with IWP2 (5 μM, EMD Millipore) from d0 to d7, with SAG (0.1 µM, EMD Millipore) from d0 to d21, and with FGF8 (100 ng/ml, Peprotech) from d8 to d21. After 3 weeks of differentiation, cells were trypsinized and droplets of 10,000 cells/μl transferred to PLO/FN-coated coverslips in differentiation media (N3 media with 10 ng/ml GDNF (Peprotech), 10 ng/ml BDNF (Peprotech) and 2.5 μM DAPT (Tocris)) for further differentiation and maturation.
Differentiated cells were trypsinized and fixed in Fix/Perm solution (BD) for 30 min., and incubated with blocking buffer (PBS with 0.1 mg/ml BSA and 0.1% Saponin (both from Sigma, St. Louis, MO)) for 10 minutes. Blocked cells were incubated with primary antibody (anti-Nkx2.1; Epitomics) in blocking buffer for 30 minutes. After washing with PBS, Alexa 647-conjugated secondary antibodies (Invitrogen) were added (1:1000) and incubated for another 15 minutes. Some samples were incubated only with secondary antibody as control. After washing with PBS, cells were suspended in blocking buffer and analyzed using a FACSAria (BD Biosciences, San Jose, CA). Flowjo (Tree Star, Ashland, Or) software was used to analyze raw data. Ten thousand cells were used per analysis.
For immunofluorescence staining, fixed cells or tissue sections were incubated with blocking buffer (PBS, 10% normal donkey serum (NDS)) containing 0.1% Triton for 10 minutes. Cells were then incubated overnight at 4° C. with primary antibodies diluted in PBS containing 2% NDS. The primary antibody list can be found in table 1. After rinsing with PBS, samples were incubated with fluorescent dye-labeled secondary antibodies (Alexa 488- Alexa 594- or Alexa 647-labeled IgG; Invitrogen, Carlsbad, CA) in PBS containing 2% NDS for 30 minutes at room temperature. After rinsing with PBS, Hoechst 33342 ([…]) was used for counterstaining, and coverslips/tissues sections were mounted onto slides in Mowiol 4-88 (Calbiochem, Gibbstown, NJ). Confocal analysis was performed using an Olympus DSU Spinning Disc Confocal on an IX81 inverted microscope (Center Valley, PA).
Cells were counted using the StereoInvestigator image capture equipment and software (Microbright Field, Williston, VT). For counting of cells on cover slips, an optical fractionator probe was used with a 500 μm×500 µm grid size and 100 μm×[…] counting frame (>40 counting sites with >1000 total cells counted per sample) at 40× magnification. Coverslips from 3-4 independent differentiations were used for analysis. For statistical analysis, we performed t-test (alpha=0.05) comparing control vs. sample using Prism6 software (Graph Pad).

[2] = tested on: AMPA/kainate-type glutamate receptors; assay: NBQX inhibition of sEPSC in grafted cells; design: species or system human; conditions: 10 μM NBQX
[3] = tested on: H9 cells; assay: MGE derivation from differentiating hPSCs (Nkx2.1 immunocytochemistry, cell counting, FACS); assay type: cell-based, human
[4] = tested on: differentiating ES cells; assay: Real time PCR analysis of differentiating ES cells; assay type: cell-based, human
Method: Total RNA was prepared using Trizol (Invitrogen) and Purelink RNA mini kit (Invitrogen). cDNA from total RNA was generated using the SuperScript™ II RT (Invitrogen, Carlsbad, CA) and oligo (dT) primers. For quantitative analysis of the expression level of mRNAs, real-time PCR analyses were performed using the DNA engine Opticon™ (MJ Research, Waltham, MA) and SYBR green I (Molecular Probes, OR). Primers were designed using the MacVector software (Oxford Molecular Ltd.: primers sequences are available upon request). PCR were performed in 25 μl containing […] of each primer, 0.5×SYBR Green I (Molecular Probes), and 1 μl of cDNA. Fifty cycles consisting of 95° C. for 30 sec., 55° C. for 30 sec., 72° C. for 30 sec., and 79° C. for 5 sec. were performed. Primer dimers were melted at 79° C. before measuring the fluorescent signals after each cycle. The mRNA expression level for each gene was normalized against that of the GAPDH gene. The relative values were calculated by setting the normalized value of control as 1.

[5] = tested on: voltage-gated Na+ channels; assay type: cell-based, human
[6] = SHH activation during early differentiation

Question: How did the MGE specification [1] turn out when `Cc1ccc2nc(NC(=O)CSc3nc4c(c(=O)n3-c3ccccc3)SCC4)sc2c1` [IWP2] was run?
Answer: The MGE specification was 5.16%.

Question: Which “inhibition of spontaneous excitatory postsynaptic currents” value [2] does the source give for `NS(=O)(=O)c1cccc2c1c([N+](=O)[O-])cc1nc(O)c(O)nc12` [NBQX] here?
Answer: Its value is “inhibited sEPSC completely”.

Question: How did the “expression of isl1” value ([1]; 10 nM vs 100 nM SAG) turn out when `CNC1CCC(N(Cc2cccc(-c3ccncc3)c2)C(=O)c2sc3ccccc3c2Cl)CC1` (stereo not drawn) [SAG] was run?
Answer: The value was “no significant difference”.

Question: And the “induction of the MGE phenotype” value ([1]; 100 nM SAG, H9 cells, 25 days of differentiation)?
Answer: The value was “significantly higher induction of the MGE phenotype”.

Question: What about the MGE specification [1] of the same molecule?
Answer: Its MGE specification is 0.79%.

Question: What about the MGE specification ([3]; 10 nM SAG, H9 cells, 25 days of differentiation) of the same molecule?
Answer: The MGE specification was “modest increase in MGE specification”.

Question: And the “Nkx2.1 level / MGE derivation” value ([3]; SAG treatment in the 3rd week of differentiation)?
Answer: Its value is “increased Nkx2.1 level mildly but significantly; also recorded: further enhanced MGE derivation”.

Question: What about the Gli1 expression [4, 6] of the same molecule?
Answer: Its Gli1 expression is “strong induction of Gli1”.

Question: And the Gli3 expression [4, 6]?
Answer: The Gli3 expression was “strong Gli3 expression reduction”.

Question: What about the FGF15/19 expression ([4]; early SHH activation) of the same molecule?
Answer: The FGF15/19 expression was “induced the expression of FGF15/19”.

Question: How did the “block of transient (rapidly desensitizing) inward currents” value [5] turn out when `NC1=N[C@H](O)[C@H]2[C@H]3O[C@]4(O)O[C@@H]([C@@H](O)[C@@]2(N1)[C@@H]4O)[C@]3(O)CO` [tetrodotoxin] was run?
Answer: The value was “completely blocked; also recorded: selectively blocked transient component”.

Question: Which “Nkx2.2+/total cells” value [1] does the source give for “FGF19: exogenously applied FGF19, caudalizing signal” here?
Answer: The value was 4.19+0.77%.

Question: What about the CGE identity ([3]; FGF19 applied exogenously instead of FGF8, 3 weeks of differentiation) of the same molecule?
Answer: The CGE identity was “most of the cells taking up CGE identity; also recorded: induces CGE phenotype”.

Question: And the FGF8 expression ([4]; exogenous application of FGF19)?
Answer: The FGF8 expression was “no effect on FGF8 expression; also recorded: does not affect FGF8 expression”.

B1: FGF8: fibroblast growth factor 8 protein (SEQ ID NO: 1), activator of FGF8 signaling (protein, listed as Homo sapiens)
chain: MAEDGDPFAKLIVETDTFGSRVRVRGAETGLYICMNKKGKLIAKSNGKGKDCVFTEIVLENNYTALQNAKYEGWYMAFTRKGRPRKGSKTRQHQREVHFMKRLPRGHHTTEQSLRFEFLNYPPFTRSLRGSQRTWAPEPR
Question: Which results are given for B1?
Answer: MGE cells by FACS ([1]; early SHH activation with exogenous FGF8, multiple hPSCs): > 80%; Nkx2.2+/total cells [1]: 0.61+0.38%; MGE differentiation vs CGE differentiation ([1]; treatment in the 2nd and/or 3rd week of differentiation): significantly increased MGE differentiation at the expense of CGE differentiation; also recorded: further induced MGE phenotype at the expense of the CGE phenotype; also recorded: induces MGE phenotype; FGF19 expression ([4]; exogenous application of FGF8): increase FGF19 expression mildly but significantly; also recorded: increases FGF19 expression
